Assay results reported in patent publication US20150218141A1, “SUBSTITUTED CARBAMATE COMPOUNDS” (HOFFMANN-LA ROCHE INC, priority 2012, published 2015).
Structures can show the parent of a compound that is named as a salt.

molecular target: T1, hTRPA1 (Homo sapiens, UniProt O75762); assay: IC50 determination, dose response calcium flux (FLIPR) assay, ChanTest hTRPA1-CHO stably transfected cell line; assay type: cell-based; conditions: CHO-K1 Tet-On hTRPA1 cells, 30' preincubation, agonist cinnamaldehyde final 100 uM
T1 construct: host or cells: CHO-K1 Tet-On, Clone 20 (Chinese Hamster Ovary cells, inducible expression)
Method: IC50 Determination of Exemplified Compounds Dose Response Assay: ChanTest hTRPA1-CHO Stably Transfected Cell Line
CHO-K1 Tet-On_HOMSA_TRPA1_Clone—20
Growth Media for CHO-K1 Tet-On_HOMSA_TRPA1_Clone—20 • Ham's F-12 with 10% tetracycline-free FBS • 1× penicillin-streptomycin • 1× glutamax • 0.01 mg/ml Blasticidin • 0.40 mg/ml Zeocin • The cell line doubling rate was ˜15 hours. […] Experiments were run at 24 hours post induction.
Plating Conditions CHOK1/TRPA1 Cells: • Harvested cells with 0.025% trypsin/EDTA. • Resuspended cells in growth media without selection antibiotics. • Measured cell density and diluted to 2.4×10^5 cells/ml in media containing 1 ug/ml Doxycycline Plate 25 ul/well into 384 well black/clear tissue culture-treated plates. • Incubated overnight at 37° C.
Reagents: • Replacement Buffer: Hank's Balanced Salt Solution, 20 mM HEPES along with 0.005% BSA and 2× Probenecid • Dye Loading Buffer: Cal-3 NW Calcium dye was prepared by dissolving the contents of one vial with […] Hank's Balanced Salt Solution containing 20 mM HEPES. • Control compounds for CHOK1/TRPA1 cells: AP-18, stock 10 mM, prepare 3.5× compound dilution in a Compound Buffer (HBSS/20 mM HEPES/0.005% BSA)—final concentration 10 uM.
Preparation of Cinnamaldehyde (Agonist Addition):
• Specific gravity=1.046 gm/cc • 1.32 gm/1.046 gm/cc=1.26 ml of stock • Add 1.74 ml DMSO=3.3 M stock • Working solution 4.5× (final 100 uM in Compound Buffer: HBSS/20 mM HEPES/0.005% BSA)
Compounds dilutions were prepared from 5 or 10 mM stock (100% DMSO): • Adjustments of volumes and concentrations were made at time of titration to reflect desired final assay concentrations. • Compounds were tested at either 20 μM three folds dilution 11 steps out or 30 μM two folds dilution 11 steps out. • 3 μl of diluted compound were transferred into Weidmann 384-well plate in duplicates side-by-side.
Compound plates were resuspended with 100 ul of HBSS/20 mM HEPES/0.005% BSA buffer (Compound Buffer):
Growth media was removed from the cell plates (20 ul) and 20 ul of the Replacement Buffer was added followed by addition of 25 ul of diluted dye. All three steps were performed using a Plate Washer BioTek 407. The plates were then incubated for 30′ at RT.
After incubation, both the cell and compound plates were brought to the FLIPR and 20 ul of the diluted compounds/antagonist/bk were transferred to the cell plates by the FLIPR. Plates were then incubated for 30′ at room temperature. After 30′ incubation, plates were returned to the FLIPR and 20 ul of 4.5× Cinnamaldehyde was added to the cell plates. During the compound addition as well as agonist addition, fluorescence readings were taken simultaneously from all 384 wells of the cell plate every 1.5 seconds. Five readings were taken to establish a stable baseline, then 20 ul of sample was rapidly (30 ul/sec) and simultaneously added to each well of the cell plate. The fluorescence was continuously monitored before, during and after sample/agonist addition for a total elapsed time of 100 seconds (compound addition) and 120 seconds (agonist addition). Responses (increase in peak fluorescence) in each well following agonist addition was determined. The initial fluorescence reading from each well, prior to ligand stimulation, was used a zero baseline value for the data from that well.

T1 sequence (O75762 whole entry): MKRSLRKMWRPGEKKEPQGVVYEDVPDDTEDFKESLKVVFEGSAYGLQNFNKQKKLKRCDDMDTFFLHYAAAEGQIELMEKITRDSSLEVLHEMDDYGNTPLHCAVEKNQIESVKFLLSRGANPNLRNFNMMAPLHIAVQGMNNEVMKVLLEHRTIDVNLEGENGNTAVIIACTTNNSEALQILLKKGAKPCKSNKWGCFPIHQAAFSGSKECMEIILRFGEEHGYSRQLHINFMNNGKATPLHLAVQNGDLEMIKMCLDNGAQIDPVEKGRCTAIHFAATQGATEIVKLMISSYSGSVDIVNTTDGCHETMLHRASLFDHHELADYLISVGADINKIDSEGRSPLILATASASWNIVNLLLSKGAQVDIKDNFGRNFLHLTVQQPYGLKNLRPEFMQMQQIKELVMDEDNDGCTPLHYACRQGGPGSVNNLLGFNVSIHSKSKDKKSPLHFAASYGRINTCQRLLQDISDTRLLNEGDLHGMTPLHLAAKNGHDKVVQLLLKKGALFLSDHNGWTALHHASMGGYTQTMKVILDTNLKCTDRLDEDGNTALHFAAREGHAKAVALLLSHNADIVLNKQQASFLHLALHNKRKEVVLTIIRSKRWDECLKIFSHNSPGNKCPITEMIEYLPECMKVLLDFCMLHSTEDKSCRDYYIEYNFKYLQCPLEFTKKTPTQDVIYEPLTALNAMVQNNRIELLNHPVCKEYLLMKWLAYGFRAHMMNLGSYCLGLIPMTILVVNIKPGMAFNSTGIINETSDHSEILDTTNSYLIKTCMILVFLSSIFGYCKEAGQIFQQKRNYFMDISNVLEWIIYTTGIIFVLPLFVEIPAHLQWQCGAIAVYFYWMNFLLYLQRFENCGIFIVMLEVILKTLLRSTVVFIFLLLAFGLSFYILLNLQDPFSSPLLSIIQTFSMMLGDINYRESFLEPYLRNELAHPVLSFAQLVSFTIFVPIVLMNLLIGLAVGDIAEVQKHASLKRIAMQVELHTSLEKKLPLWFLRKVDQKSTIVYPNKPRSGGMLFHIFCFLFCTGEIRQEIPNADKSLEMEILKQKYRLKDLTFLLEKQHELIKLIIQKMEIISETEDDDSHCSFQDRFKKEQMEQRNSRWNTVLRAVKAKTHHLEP

SMILES | IC50
O=C(Nc1ccc(Cl)cc1)O[C@@H](CN1CCC(Cc2ccccc2)C1)C(F)(F)F (stereo partly drawn) [Example 64, (4-Chlorophenyl)-carbamic acid (S)-1-(3-benzylpyrrolidin-1-ylmethyl)-2,2,2-trifluoro-ethyl ester] | 4990 nM
COc1cccc([C@@H]2CCCN(C[C@H](OC(=O)Nc3ccc(Cl)cc3)C(F)(F)F)C2)c1 [Example 4, (4-Chlorophenyl)-carbamic acid (S)-2,2,2-trifluoro-1-[(S)-3-(3-methoxyphenyl)-piperidin-1-ylmethyl]-ethyl ester hydrochloride] | 7700 nM
O=C(Nc1ccc(Cl)cc1)O[C@@H](CN1CCC[C@@H](c2ccccc2)C1)C(F)(F)F [Example 6, (4-Chlorophenyl)-carbamic acid (S)-2,2,2-trifluoro-1-((S)-3-phenylpiperidin-1-ylmethyl)-ethyl ester hydrochloride] | 1500 nM
COc1cccc(OC2CCCN(C[C@H](OC(=O)Nc3ccc(Cl)cc3)C(F)(F)F)C2)c1 (stereo partly drawn) [Example 49, (4-Chlorophenyl)-carbamic acid (S)-1-[3-(3-methoxyphenoxy)-piperidin-1-ylmethyl]-2,2,2-trifluoroethyl ester hydrochloride] | 408 nM
O=C(Nc1ccc(Cl)cc1)OC(CN1CCCC(OCc2ccccc2)C1)C(F)(F)F (stereo not shown) [Example 14, (4-Chlorophenyl)-carbamic acid 1-(3-benzyloxypiperidin-1-ylmethyl)-2,2,2-trifluoroethyl ester] | 137 nM
COCCOc1cc(C2CCCN(C[C@H](OC(=O)Nc3ccc(Cl)cc3)C(F)(F)F)C2)ccc1F (stereo partly drawn) [Example 34, (4-Chlorophenyl)-carbamic acid (S)-2,2,2-trifluoro-1-{3-[4-fluoro-3-(2-methoxyethoxy)-phenyl]-piperidin-1-ylmethyl}-ethyl ester] | 339 nM
O=C(Nc1ccc(Cl)cc1)OC(CN1CCCC(c2ccccc2)CC1)C(F)(F)F (stereo not shown) [Example 27, (4-Chlorophenyl)-carbamic acid 2,2,2-trifluoro-1-(4-phenyl-azepan-1-ylmethyl)-ethyl ester] | 2260 nM
N#Cc1ccnc(OC2CCCN(C[C@H](OC(=O)Nc3ccc(Cl)cc3)C(F)(F)F)C2)c1 (stereo partly drawn) [Example 54, (4-Chlorophenyl)-carbamic acid (S)-1-[3-(4-cyanopyridin-2-yloxy)-piperidin-1-ylmethyl]-2,2,2-trifluoroethyl ester hydrochloride] | 596 nM
Cc1noc(C2CCCN(C[C@H](OC(=O)Nc3ccc(Cl)cc3)C(F)(F)F)C2)n1 (mixture of isomers) [Example 28, (4-Chlorophenyl)-carbamic acid (S)-2,2,2-trifluoro-1-[3-(3-methyl-[1,2,4]oxadiazol-5-yl)-piperidin-1-ylmethyl]-ethyl ester hydrochloride] | 1850 nM
COc1ccc(CC2CCCN(C[C@H](OC(=O)Nc3ccc(Cl)cc3)C(F)(F)F)C2)cc1 (stereo partly shown) [Example 20, (4-Chlorophenyl)-carbamic acid 2,2,2-trifluoro-1-[3-(4-methoxybenzyl)-piperidin-1-ylmethyl]-ethyl ester] | 165 nM
COc1ccccc1C1CCCN(CC(OC(=O)Nc2ccc(Cl)cc2)C(F)(F)F)C1 (stereo not shown) [Example 1, (4-Chlorophenyl)-carbamic acid 2,2,2-trifluoro-1-[3-(2-methoxyphenyl)-piperidin-1-ylmethyl]-ethyl ester] | 4970 nM
O=C(Nc1ccc(Cl)cc1)O[C@@H](CN1CCCC(c2ccc(C(F)(F)F)nc2)C1)C(F)(F)F (stereo partly drawn) [Example 57, (4-Chlorophenyl)-carbamic acid (S)-2,2,2-trifluoro-1-(6′-trifluoromethyl-3,4,5,6-tetrahydro-2H-[3,3′]bipyridinyl-1-ylmethyl)-ethyl ester hydrochloride] | 342 nM
O=C(Nc1ccc(Cl)cc1)O[C@H](CN1CCC[C@H](c2ccccc2)C1)C(F)(F)F [Example 7, (4-Chlorophenyl)-carbamic acid (R)-2,2,2-trifluoro-1-((R)-3-phenylpiperidin-1-ylmethyl)-ethyl ester hydrochloride] | 6400 nM
O=C(Nc1ccc(Cl)cc1)O[C@@H](CN1CCCC(COc2ccc(F)cc2)C1)C(F)(F)F (stereo partly drawn) [Example 51, (4-Chlorophenyl)-carbamic acid (S)-2,2,2-trifluoro-1-[3-(4-fluorophenoxymethyl)-piperidin-1-ylmethyl]-ethyl ester hydrochloride] | 178 nM
O=C(Nc1ccc(Cl)cc1)OC(CN1CCCC(Cc2ccccc2)C1)C(F)(F)F (stereo not shown) [Example 9, (4-Chlorophenyl)-carbamic acid 1-(3-benzylpiperidin-1-ylmethyl)-2,2,2-trifluoroethyl ester hydrochloride salt (1:1)] | 339 nM
O=C(Nc1ccc(Cl)cc1)OC(CN1CCCC(c2ccc(Cl)cc2)C1)C(F)(F)F (stereo not shown) [Example 37, (4-Chlorophenyl)-carbamic acid 1-[3-(4-chlorophenyl)-piperidin-1-ylmethyl]-2,2,2-trifluoro ethyl ester] | 522 nM
O=C(Nc1ccc(F)c(Cl)c1)O[C@@H](CN1CCCC(c2cccc(C(F)(F)F)c2)C1)C(F)(F)F (stereo partly drawn) [Example 65, (3-Chloro-4-fluoro-phenyl)-carbamic acid (S)-2,2,2-trifluoro-1-[3-(3-trifluoromethyl-phenyl)-piperidin-1-ylmethyl]-ethyl ester] | 257 nM
COc1cccc(C2CCCN(CC(OC(=O)Nc3ccc(Cl)cc3)C(F)(F)F)C2)c1 (stereo not shown) [Example 2, (4-Chlorophenyl)-carbamic acid 2,2,2-trifluoro-1-[3-(3-methoxyphenyl)-piperidin-1-ylmethyl]-ethyl ester hydrochloride] | 345 nM
O=C(Nc1ccc(Cl)cc1)O[C@@H](CN1CCC[C@H](c2ccccc2)C1)C(F)(F)F [Example 5, (4-Chlorophenyl)-carbamic acid (S)-2,2,2-trifluoro-1-((R)-3-phenylpiperidin-1-ylmethyl)-ethyl ester hydrochloride] | 333 nM
O=C(Nc1ccc(Cl)nc1)O[C@@H](CN1CCCC(c2cccc(C(F)(F)F)c2)C1)C(F)(F)F (stereo partly drawn) [Example 68, (6-Chloropyridin-3-yl)-carbamic acid (S)-2,2,2-trifluoro-1-[3-(3-trifluoromethylphenyl)-piperidin-1-ylmethyl]-ethyl ester] | 192 nM
O=C(Nc1ccc(Cl)cc1)O[C@@H](CN1CCC[C@H](c2cc(C(F)(F)F)cc(C(F)(F)F)c2)C1)C(F)(F)F [Example 23, (4-Chlorophenyl)-carbamic acid (S)-1-[(R)-3-(3,5-bis-trifluoromethylphenyl)-piperidin-1ylmethyl]-2,2,2-trifluoroethyl ester] | 21.5 nM
O=C(Nc1ccc(F)c(F)c1)O[C@@H](CN1CCCC(c2cccc(C(F)(F)F)c2)C1)C(F)(F)F (stereo partly drawn) [Example 67, (3,4-Difluorophenyl)-carbamic acid (S)-2,2,2-trifluoro-1-[3-(3-trifluoromethylphenyl)piperidin-1-ylmethyl]-ethyl ester] | 177 nM
COCCOc1cc([C@H]2CCCN(C[C@H](OC(=O)Nc3ccc(Cl)cc3)C(F)(F)F)C2)ccc1F [Example 35, (4-Chlorophenyl)-carbamic acid (S)-2,2,2-trifluoro-1-{(R)-3-[4-fluoro-3-(2-methoxyethoxy)-phenyl]-piperidin-1-ylmethyl}-ethyl ester hydrochloride] | 334 nM
O=C(Nc1ccc(Cl)cc1)O[C@@H](CN1CCCC(Oc2ccc(Cl)cc2)C1)C(F)(F)F (stereo partly drawn) [Example 45, (4-Chlorophenyl)-carbamic acid (S)-1-[3-(4-chlorophenoxy)-piperidin-1-ylmethyl]-2,2,2-trifluoroethyl ester hydrochloride] | 139 nM
O=C(Nc1ccc(Cl)cc1)O[C@@H](CN1CCC[C@H](Cc2ccccc2)C1)C(F)(F)F (single isomer, unassigned) [Example 11] | 87.2 nM
